Results published in patent publication US11760784B2, “Compositions comprising PEDF-derived short peptides and uses thereof” (BRIM Biotechnology, Inc., priority 2016, dated 2023).
Entries after “also recorded” stand apart in the source; their conditions may differ.

What was measured:
[1] = system: desiccating stress-induced dry eye; assay: Tear production by phenol red thread test in CEC dry eye mice; format: in vivo, C57BL/6 mice; conditions: CEC 14 days
Protocol: (§1) Dry eye was induced by placing mice in a controlled environment chamber (CEC) as previously described (Barabino et al., 2005). Briefly, mice placed in the CEC were exposed to a relative humidity (RH)<25%, temperature of 20 to 22° C., and airflow of 15 L/min, 12 hours per day. Non-stressed (NS) mice without stress-induced dry eye were kept in a normal environment (RH >50%, no air flow, temperature of 21-23° C.) for the same duration. Corneal fluorescein staining and
Tear production was measured with phenol red-impregnated cotton threads (Zone-Quick; Oasis, Glendora, CA). The validity of this test in mice was performed as previously described (Dursun et al., 2002). The threads were held with jeweler forceps and placed in the lateral canthus for 60 seconds. The tear production is expressed in millimeters of thread that is wet by the tear and turned red.
To determine whether PDSP have therapeutic effects in a desiccating stress (DS)-induced ocular surface defects, mice were housed at controlled environment chamber (CEC) for 14 days to create ocular surface disruption. After 14 days in CEC, we used mice with fluorescence scores that are above 2 for the first experiments (FIG. 1A). […]

[2] = system: goblet cells in the conjunctiva; assay: PAS staining of conjunctival goblet cells in CEC dry eye mice; format: in vivo, C57BL/6 mice; conditions: CEC 14 days, then eye drop for 5 days; vehicle 37±1.1; non-stressed 58±3.1
Protocol: Reduced mucin production could result from reduced goblet cells. […] Briefly, C57BL6 mice were housed in CEC for 14 days and then treated with PDSP or vehicle for additional 5 days. Non-stressed eyes are included as non-stressed controls (NS).
as §1
After animals were euthanized, eyes were surgically excised, fixed in 10% formalin, paraffin embedded, and cut into 5-μm sections. […] PAS-positive goblet cells in the conjunctiva were measured in five sections from each eye.

MCP-1 mRNA = assay: Ocular MCP-1 mRNA by quantitative real-time PCR in CEC dry eye mice; format: in vivo, C57BL6 mice; conditions: CEC 14 days, then topical PDSP for 5 days
Protocol: Dry eye is associated with abnormalities in the pre-corneal tear film and subsequent inflammatory changes in the entire ocular surface including the adnexa, conjunctiva and cornea. (see, Hessen et al., “Dry eye: An Inflammatory Ocular Disease,” J. Ophthalmic Vis. Res., 2014, 9(2): 240-250). Therefore, the effects of PDSPs in corneal inflammatory responses were next examined. Briefly, C57BL6 mice were housed in CEC for 14 days (Day 0) and then treatment with PDSP or vehicle were performed for additional 5 days (Day 5). Then, mRNA levels for inflammatory factors were evaluated by quantitative real-time PCR.
The total RNA was extracted from cells using TRIzol (Invitrogen) and treated with RNase free DNase I (Qiagen, Santa Clarita, CA) to remove genomic DNA and then purified with an RNA purification kit (Dynabeads; Invitrogen). […] Quantitative real-time PCR was performed in a GeneAmp 7700 sequence detection system (Applied Biosystems, Foster City, CA). […] All determinations were measured in triplicate. The cycle threshold (Ct) values corresponded to the PCR cycle number at which fluorescence emission in real time reaches a threshold above the base-line emission were analyzed using GeneAmp 7700 SDS software. The Ct value of the PCR product of interest and a control mRNA (GAPDH) were then used to calculate relative quantities of mRNA between samples.

MMP-9 mRNA = MMP-9 mRNA by quantitative real-time PCR in NaCl-treated corneal epithelial cells; format: cell-based, rabbit
Protocol: Therefore, we also examined the effects of PDSP on the MMP-9 mRNA expression and activity in NaCl-treated rabbit corneal epithelial cells. Briefly, rabbit corneal epithelial cells were treated as described above. […] Hyperosmotic stress induced a substantial (about 2-fold) increase in MMP-9 mRNA level (Negative control peptide, ConP, followed by NaCl treatment). […] The increases in MMP-9 mRNA levels substantially correlate with the expression of the MMP-9 protein as measured with SDS-gel and enzymatic activities, as shown in FIG. 7(B).
The total RNA was extracted from cells using TRIzol (Invitrogen) and treated with RNase free DNase I (Qiagen, Santa Clarita, CA) to remove genomic DNA and then purified with an RNA purification kit (Dynabeads; Invitrogen). Synthesis of cDNA was performed by Superscript III (Invitrogen). Quantitative real-time PCR was performed in a GeneAmp 7700 sequence detection system (Applied Biosystems, Foster City, CA). […] All determinations were measured in triplicate. The cycle threshold (Ct) values corresponded to the PCR cycle number at which fluorescence emission in real time reaches a threshold above the base-line emission were analyzed using GeneAmp 7700 SDS software. The Ct value of the PCR product of interest and a control mRNA (GAPDH) were then used to calculate relative quantities of mRNA between samples. […]

Substance: PDSP: 29mer, residues 93-121 of human PEDF: SLGAEQRTESIIHRALYYDLISSPDIHGT (SEQ ID NO:4) (listed as Homo sapiens)
- tear production (cotton thread test) ([1]; then PDSP for 5 days, vehicle 4.5±0.2, day 0 3.8±0.5, non-stressed 5.4±0.4): 5±0.3 mm
- tear production (phenol red thread), human vs mouse PDSP ([1]; then peptide for 3 days (FIG. 12), listed as human PDSP): capable of restore; also recorded: improved tear productions to the same extent
- conjunctival goblet cell counts (PAS-positive cells) [2]: 46±3.8
- repression of ocular MCP-1 mRNA expression compared to vehicle-treated group (MCP-1 mRNA): 1.7 fold
- MMP-9 mRNA levels without hyperosmotic stress (peptide alone) (MMP-9 mRNA; PDSP alone, isotonic medium): did not have effect
- repression of MMP-9 mRNA expression (MMP-9 mRNA; PDSP pretreatment 20 hours, then hyperosmotic medium (463 mOsM) 24 hours): 2 fold
